Here are results for one molecule from PMC6681004, “Asymmetric Whole-Cell Bio-Reductions of (R)-Carvone Using Optimized Ene Reductases” (Molecules, 2019).

The target in the test is T1, NostocER1 (Nostoc sp. PCC 7120 = FACHB-418, UniProt A0ACD6B956).
T1 construct: gene all1865; full-length gene, pET28a(+) based vector (NcoI/BamHI), co-expressed with M. vaccae FDH in E. coli BL21(DE3)
Briefly: whole-cell biotransformation, chiral GC-FID. The class given is cell-based. The note with it: E. coli BL21(DE3) whole cells with FDH; 300 mM (R)-carvone, 450 mM formate, 0.1 mM NAD+, XAD4 resin, pH 7.0, 25 °C; product (2R,5R)-dihydrocarvone.

T1 sequence (A0ACD6B956 38-402): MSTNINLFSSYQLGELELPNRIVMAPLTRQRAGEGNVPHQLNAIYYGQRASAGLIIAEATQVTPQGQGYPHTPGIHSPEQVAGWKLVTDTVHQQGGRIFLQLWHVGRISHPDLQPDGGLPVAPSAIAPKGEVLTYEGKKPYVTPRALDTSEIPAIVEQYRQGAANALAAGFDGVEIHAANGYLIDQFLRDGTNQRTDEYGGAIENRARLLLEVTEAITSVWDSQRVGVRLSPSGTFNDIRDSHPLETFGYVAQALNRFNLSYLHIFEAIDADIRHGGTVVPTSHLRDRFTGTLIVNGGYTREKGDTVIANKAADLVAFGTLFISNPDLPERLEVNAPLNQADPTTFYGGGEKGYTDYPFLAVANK

Take `C=C(C)[C@@H]1CC=C(C)C(=O)C1` [compound 1, (R)-carvone]: the “whole-cell biotransformation, chiral GC-FID” value is listed as “E. coli cells with the NostocER1 wild type possessed the slowest of all determined product formation rates”.
